# What was measured:
# iPSCs (TC1133) [1] = assay: Cardiac differentiation of iPSCs in suspension (ambr15, 2-factor protocol CHIR/IWP4); format: cell-based, human
# Procedure: The cardiac differentiation potential of iPSCs after long-term culture was assessed by direct differentiation into iPSC-CMs using a published 2-factor protocol (Chen et al., 2015). iPSC aggregates were differentiated in the ambr15 system and the medium was exchanged manually. Briefly, the basal medium on day 0-5 consisted of RPMI 1640+2% B-27 supplement without insulin. From day 6 onwards the basal medium was RPMI 1640+2% b-27 supplement. To initiate mesodermal differentiation, CHIR was added in varying concentrations on day 1. 5 μM IWP4 was added on day 2 and 3 or day 3 and 4 to initiate cardiac differentiation. A main goal of this project was to ensure that the cardiac differentiation potential remains in iPSCs that are cultivated with the developed expansion strategy. The cardiac differentiation potential was assessed by using a published protocol for the directed cardiac differentiation of PSCs in suspension culture (Chen et al., 2015). iPSCs in suspension were successfully differentiated into iPSC-CMs during early passages (Cultivation Optimization Run 12) and during late passages (Cultivation Optimization Run 13) of long-term cultures. Thereby, proof of concept was shown that iPSCs generated with the developed expansion strategy can be used to produce iPSC-CMs in suspension culture.
# iPSCs (TC1133) [2] = assay: Y27632 pretreatment before automatic passaging of iPSC aggregates in ambr15 suspension culture (Cultivation Optimization Run 08); format: cell-based, human
# Excerpt: The nucleocounter NC-200 offers fast and reliable assessment of cell number and viability. Furthermore, it is GMP-compliant and is used during the production stage. Single cell suspensions may be directly measured with the NC-200, whereas suspensions with high content of cell clumps should be treated according to special protocols, supplied with the NC-200. These protocols include cell lysis to ensure distinguishability of single nuclei. However, large iPSC aggregates of about 70-250 μm, which were obtained in the suspension culture, could not be sufficiently lysed with the provided protocols within a reasonable time. Therefore, iPSC aggregates were digested using TrypLE before measurement with the NC-200. […] This suspension was then used for measurement with the NC-200 using the “Viability and Cell Count—A100 and B Assay” intended for small cell aggregates.
# The pluripotency state of iPSCs was assessed by analyzing the pluripotency-related markers NANOG, TRA-1-60, and OCT4 using flow cytometry. iPSC aggregates were digested with TrypLE to achieve a near singe cell suspension. Subsequently the cells were fixed by adding Histofix to the cell suspension in a 1:1 ratio (resulting in 2% PFA). For analysis, the cells were stained with fluorochrome-conjugated antibodies. Dead cells were excluded from the analysis with Hoechst staining. Accordingly, the expression of a-Actinin and cTNT was analyzed to assess the success of cardiac differentiation.
# The aggregate size was analyzed using a Cellavista device. Culture samples were transferred into a 24-well plate prepared with PBS (—Ca2+/—Mg2+) and measured with the Cellavista. Images were processed by the Cellavista software by applying a threshold to discriminate aggregates from background. The software FIJI (Schindelin et al., 2012) was subsequently used to analyze aggregate size.
# To increase the degree of reaggregation, pretreatment with ROCK inhibitor Y27632 was tested. Pretreatment of iPSCs with Y27632 has been reported for other procedures that require cell singularization and are stressful for iPSCs (Chatterjee et al., 2011). […]
SMILES,optimal concentration for successful cardiac differentiation (iPSCs (TC1133) [1]; iPSCs of earlier passages (passage 0)) [µM],optimal concentration for successful cardiac differentiation (iPSCs (TC1133) [1]; iPSCs of later passages (passage 8)) [µM],"expression of NANOG (iPSCs (TC1133) [2]; day 3, passage 1, flow cytometry, Y27632 pretreatment) [%]","expansion rate (iPSCs (TC1133) [2]; day 5, passage 1, 10 μM Y27632 pretreatment, Versene passaging) [fold]","aggregate size (mean) (iPSCs (TC1133) [2]; passage 1, Y27632 pretreatment) [μm]"
"Cc1c[nH]c(-c2cnc(NCCNc3ccc(C#N)cn3)nc2-c2ccc(Cl)cc2Cl)n1 [CHIR, CHIR99021]",6,18,–,–,–
C[C@@H](N)[C@H]1CC[C@H](C(=O)Nc2ccncc2)CC1 [Y27632],–,–,93,9,162

# — patent US20260286309A1, “DIFFERENTIATION OF IPSCS IN BIOREACTORS” (REPAIRON GMBH, priority 2022, published 2026)
